Experimental data reported in ChEMBL document CHEMBL1137798, “Evaluation of natural products as inhibitors of human immunodeficiency virus type 1 (HIV-1) reverse transcriptase” (J Nat Prod, 1991).
Structures can show the parent of a compound that is named as a salt.

How the values were obtained:
[1] = molecular target: T1, Human immunodeficiency virus type 1 reverse transcriptase (Human immunodeficiency virus 1, UniProt Q72547); conditions: read-out: IC50 (converted)
[2] = molecular target: Human immunodeficiency virus type 1 reverse transcriptase (Human immunodeficiency virus 1) (UniProt Q72547); assay: Inhibition of HIV1 RT at 200 ug/ml
[3] = molecular target: T1, Human immunodeficiency virus type 1 reverse transcriptase; assay: Inhibition of HIV1 RT using poly A oligo(dT) template primer

Row | Compound | IC50 [1] [µM] | inhibition [2] [%] | IC50 [3] [µM]
1 | COc1ccc2c(c1OC)CN1CCc3cc4c(cc3C1C2)OCO4 (stereo not given) [TETRAHYDROBERBERINE] | > 589 | 25 | –
2 | CC[C@H]1CN2CCc3cc(OC)c(OC)cc3[C@@H]2C[C@@H]1C[C@H]1NCCc2cc(O)c(OC)cc21 [CEPHAELINE DIHYDROCHLORIDE] | > 371 | 20 | –
3 | C/C=C1/C[N+]2(C)CC[C@@]34c5ccccc5N[C@]32CCC1C4(CO)C(=O)OC (stereo not given in full) [ECHITAMINE CHLORIDE] | > 494 | < 10 | –
4 | COc1cc2c[n+](C)c3c4cc5c(cc4ccc3c2cc1OC)OCO5 [NITIDINE CHLORIDE] | < 130 | – | 128
5 | COc1cc2c(ccc3c4cc(OC)c(OC)cc4c[n+](C)c23)cc1O [FAGARONINE] | 46.7 | – | 25.9
6 | COc1cc2c(ccc3c4cc(OC)c(OC)cc4cnc23)cc1O | > 596 | < 10 | –
7 | CC[C@H]1CN2CCc3cc(OC)c(OC)cc3[C@@H]2C[C@@H]1CC1=NCCc2cc(O)c(OC)cc21 [PSYCHOTRINE] | > 430 | 20 | –
8 | COc1cc2c(cc1OC)[C@@H]1Cc3ccc(OC)c(O)c3CN1CC2 [TETRAHYDROPALMATRUBINE] | > 586 | 25 | –
9 | COc1ccc2cc3[n+](cc2c1OC)CCc1cc2c(cc1-3)OCO2 [BERBERINE CHLORIDE] | 269 | – | –
10 | COC(=O)C1=CO[C@H](C)[C@@H]2CN3CCc4c([nH]c5cc(OC)ccc45)[C@@H]3C[C@H]12 [RAUNITIDINE] | > 523 | – | –
11 | COc1ccc2c(c1O)-c1c(O)c(OC)cc3c1[C@H](C2)[N+](C)(C)CC3 [MAGNOFLORINE CHLORIDE] | > 529 | < 10 | –
12 | CC(=O)O[C@H]1C(=O)[C@@]2(C)[C@H]([C@H](OC(=O)c3ccccc3)[C@]3(O)C[C@H](OC(=O)[C@H](O)[C@@H](NC(=O)c4ccccc4)c4ccccc4)C(C)=C1C3(C)C)[C@]1(OC(C)=O)CO[C@@H]1C[C@@H]2O [PACLITAXEL] | > 234 | – | –
13 | COc1cc2c(cc1OC)[C@@]13CCN4CC5=CCO[C@H]6CC(=O)N2[C@H]1[C@H]6[C@H]5C[C@H]43 [BRUCINE] | > 507 | – | –
14 | O=c1c(O)c(-c2ccc(O)cc2)oc2cc(O)cc(O)c12 [KAEMPFEROL] | < 524 | – | –
15 | COC(=O)C1=CCCN(C)C1 [ARECOLINE HYDROBROMIDE] | > 847 | – | –
16 | CC(C)=CCC[C@](C)(O[C@@H]1O[C@H](CO)[C@@H](O)[C@H](O)[C@H]1O)[C@H]1CC[C@]2(C)[C@@H]1[C@H](O)C[C@@H]1[C@@]3(C)CC[C@H](O)C(C)(C)[C@@H]3[C@@H](O[C@@H]3O[C@H](CO)[C@@H](O)[C@H](O)[C@H]3O[C@@H]3O[C@@H](C)[C@H](O)[C@@H](O)[C@H]3O)C[C@]12C [GINSENOSIDE RE] | > 211 | – | –
17 | CC(C)(O)CC[C@@H](O)[C@](C)(O)[C@H]1CC[C@@]2(O)C3=CC(=O)[C@]4(O)C[C@@H](O)[C@@H](O)C[C@]4(C)[C@H]3CC[C@]12C [POLYPODIN] | > 403 | – | –
18 | COc1cc2c(c3c1c(=O)c1ccccc1n3C)C=CC(C)(C)O2 [ACRONINE] | > 622 | – | –
19 | COc1cc2c(cc1O)-c1cc3ccc(OC)c(OC)c3c[n+]1CC2 [COLUMBAMINE IODIDE] | 125 | – | –
20 | C=C[C@H]1C[N@@]2CC[C@H]1C[C@@H]2[C@@H](O)c1ccnc2ccccc12 [CINCHONINE] | > 679 | – | –
21 | C=C1C/C(=C/C)C(=O)O[C@@H]2CCN3CC=C(COC(=O)[C@]1(C)O)[C@H]23 [SENECIPHYLLINE] | > 600 | – | –
